IC50 data for 19 compounds are collected here from patent publication US20140288044A1, “COMPOSITIONS AND THERAPEUTIC USES OF IKK-RELATED KINASE EPSILON AND TANKBINDING KINASE 1 INHIBITORS” (Alzheimer's Institute of America, Inc., priority 2011, published 2014).

Experiment [1] relates to IKKε-mediated phosphorylation of IRF3. The experiment is described as follows: ELISA for in-situ phosphorylation of IRF3 (phospho-Ser396) in HEK293T cells cotransfected with IRF3 and IKKε. The class given is cell-based. Particulars: Homo sapiens, HEK-293T, 20 h, HEK293T cells, 20 hours, read-out: IC50, in-situ IKKε-mediated phosphorylation of IRF3. The method, then:
HEK293T cells were cotransfected in a 10-cm dish with IRF3 and IKKε expression plasmids using Lipofectamine 2000 (Invitrogen, Carlsbad, Calif.). The following day, cells were replated at 20,000 per well in 96-well plates and treated with test compounds (compounds according to Formulae I and/or II) for 20 hours. Cell lysates were prepared and analyzed using an ELISA for phospho-Ser396 (anti-IRF3 capture antibody, Santa Cruz Biotechnology, Inc., Santa Cruz, Calif.; anti-p-Ser396 IRF3 detection antibody, Cell Signaling, Danvers, Mass.). pIRF3 levels in compound treated cells were normalized to DMSO treated cells (no compound). Cell viability was assayed in a parallel set of plates to monitor cytotoxic effects of the test compounds (CellTiter-Glo, Promega, Inc., Madison, Wis.). TBK1 activity was tested by Western blotting using a phospho-specific IRF7 antibody. Similar to above, HEK293T cells were transfected with IRF7 and TBK1 expression plasmids. Cells were seeded in 12-well plates at 150,000 per well and treated overnight with test compounds. Protein lysates were prepared and processed for Western blotting followed by detection using a phosphor-Ser477/Ser479 IRF7 antibody (BD Biosciences, San Jose, Calif.)
(In an ELISA, binding on a coated surface is turned into a signal by an enzyme label.)

For experiment [2], the target named is T1, IKKε (Homo sapiens, UniProt Q14164).
T1 construct: His-tag (in-house Sf9 preparation) or GST-tag (purchased Invitrogen preparation); these are alternatives, not both on one protein; host or cells: Sf9 cells
T1 sequence (Q14164 1-716): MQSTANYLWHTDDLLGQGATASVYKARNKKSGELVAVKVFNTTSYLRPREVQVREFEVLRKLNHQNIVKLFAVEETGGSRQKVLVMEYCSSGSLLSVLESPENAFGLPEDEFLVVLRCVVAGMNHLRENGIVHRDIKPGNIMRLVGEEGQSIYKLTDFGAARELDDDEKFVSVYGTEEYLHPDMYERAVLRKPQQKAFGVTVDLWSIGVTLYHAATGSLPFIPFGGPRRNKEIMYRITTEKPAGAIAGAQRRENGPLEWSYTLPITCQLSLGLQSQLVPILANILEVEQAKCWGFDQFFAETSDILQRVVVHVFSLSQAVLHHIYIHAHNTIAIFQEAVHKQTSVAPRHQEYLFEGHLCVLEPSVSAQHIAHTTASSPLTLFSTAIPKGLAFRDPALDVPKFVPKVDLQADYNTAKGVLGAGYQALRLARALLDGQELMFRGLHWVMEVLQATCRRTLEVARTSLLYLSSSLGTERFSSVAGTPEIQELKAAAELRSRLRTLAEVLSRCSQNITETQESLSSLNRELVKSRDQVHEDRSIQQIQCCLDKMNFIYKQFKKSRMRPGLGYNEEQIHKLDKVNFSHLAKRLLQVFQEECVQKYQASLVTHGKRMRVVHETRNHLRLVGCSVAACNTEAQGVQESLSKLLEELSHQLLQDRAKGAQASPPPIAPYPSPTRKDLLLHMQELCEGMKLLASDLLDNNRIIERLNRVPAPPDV
The experiment is described as follows: In-vitro IKKε kinase assay (radiolabelled ATP, filterplate). The class given is biochemical. A digest of the protocol:
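His-tagged IKKε from Sf9 cells or GST-tagged IKKε, with myelin basic protein, casein or dephosphorylated casein as substrate and 32 μM ATP (2× Km) plus [γ^33]ATP. "Normal" assay used 0.1 μg/ml enzyme; "sensitized" used 0.015 μg/ml with dephosphorylated casein only. Stopped after 30–45 min with phosphoric acid; P-81 filter counts normalized to DMSO after background subtraction.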

[3] abbreviates: "sensitized" assay, read-out: IC50, inhibition of the kinase activity of IKKε.
Setting [4] is: in-vitro IKKε kinase inhibition assays, given as 0.005 μM (5 nM), read-out: IKKε kinase inhibitory activity (IC50 value).
Setting [5] is: range given from about 1 μM to about 250 nM.

Each structure is given as a SMILES string. Where two headings read alike, the source gives them in different places.

In the case of `N#Cc1cc(-c2ccnc(Nc3ccc(C4CC4)nc3)n2)ccc1OC1CCOCC1` [Example Compound 4, 5-{2-[(6-Cyclopropylpyridin-3-yl)amino]pyrimidin-4-yl}-2-(tetrahydro-2H-pyran-4-yloxy)benzonitrile], the 50% inhibitory concentration (IC50) (in general, the concentration at which inhibition is half-maximal) in experiment [1] is below 100 nM; in experiment [2] (setting [3]), below 5 nM; in experiment [2] (setting [4]), below 5 nM.

Turning to `N#Cc1cc(-c2ccnc(Nc3ccc(N4CCCC4)nc3)n2)ccc1OC1CCOCC1` [Example Compound 5, 5-(2-{[6-(Pyrrolidin-1-yl)pyridin-3-yl]amino}pyrimidin-4-yl)-2-(tetrahydro-2H-pyran-4-yloxy)benzonitrile], the IC50 was 100 to 250 nM in experiment [1], below 5 nM in experiment [2] (setting [3]) and below 5 nM in experiment [2] (setting [4]).

Turning to `Cc1ccc(Nc2nccc(-c3ccc(OC4CCOCC4)c(C#N)c3)n2)cn1` [Example Compound 7, 5 5-{2-[(6-Methylpyridin-3-yl)amino]pyrimidin-4-yl}-2-(tetrahydro-2H-pyran-4-yloxy)benzonitrile], the IC50 in experiment [1] was 100 to 250 nM; in experiment [2] (setting [3]), below 5 nM; in experiment [2] (setting [4]) it was below 5 nM.

For the compound `CCOc1ccc(Nc2nccc(-c3ccc(OC4CCOCC4)c(C#N)c3)n2)cn1` [Example Compound 8, 5-{2-[(6-Ethoxypyridin-3-yl)amino]pyrimidin-4-yl}-2-(tetrahydro-2H-pyran-4-yloxy)benzonitrile], the results for the IC50 in experiment [1] (setting [5]), in experiment [2] (setting [3]) and in experiment [2] (setting [4]) were 250 to 1000 nM, below 5 nM and below 5 nM, respectively.

As for `CNC(=O)c1cncc(Nc2nccc(-c3ccc(OC4CCOCC4)c(C#N)c3)n2)c1` [Example Compound 12, 5-({4-[3-Cyano-4-(tetrahydro-2H-pyran-4-yloxy)phenyl]pyrimidin-2-yl}amino)-N-methylpyridine-3-carboxamide], the IC50 is 1000 to 5000 nM in experiment [1], below 5 nM in experiment [2] (setting [3]) and below 5 nM in experiment [2] (setting [4]).

Consider `COCCNC(=O)c1cncc(Nc2nccc(-c3ccc(OC4CCOCC4)c(C#N)c3)n2)c1` [Example Compound 15, 5-({4-[3-Cyano-4-(tetrahydro-2H-pyran-4-yloxy)phenyl]pyrimidin-2-yl}amino)-N-(2-methoxyethyl)pyridine-3-carboxamide], for which the IC50 in experiment [1] (setting [5]) is 250 to 1000 nM; in experiment [2] (setting [3]), below 5 nM; in experiment [2] (setting [4]) it was below 5 nM.

As for `COC1CN(Cc2cncc(Nc3nccc(-c4ccc(OC5CCOCC5)c(C#N)c4)n3)c2)C1` [Example Compound 23, 5-[2-({5-[(3-Methoxyazetidin-1-yl)methyl]pyridin-3-yl}amino)pyrimidin-4-yl]-2-(tetrahydro-2H-pyran-4-yloxy)benzonitrile], the IC50 in experiment [1] (setting [5]) was 250 to 1000 nM; in experiment [2] (setting [3]), below 5 nM; in experiment [2] (setting [4]), below 5 nM.

In the case of `N#Cc1cc(-c2ccnc(Nc3ccc(C(=O)N4CCCC4)nc3)n2)ccc1OC1CCOCC1` [Example Compound 29, 5-(2-{[6-(Pyrrolidin-1-ylcarbonyl)pyridin-3-yl]amino}pyrimidin-4-yl)-2-(tetrahydro-2H-pyran-4-yloxy)benzonitrile], the IC50 is 100 to 250 nM in experiment [1], below 5 nM in experiment [2] (setting [3]) and below 5 nM in experiment [2] (setting [4]).

With `N#Cc1cc(-c2ccnc(Nc3ccc(C(=O)N4CC(O)C4)nc3)n2)ccc1OC1CCOCC1` [Example Compound 32, 5-[2-({6-[(3-Hydroxyazetidin-1-yl)carbonyl]pyridin-3-yl}amino)pyrimidin-4-yl]-2-(tetrahydro-2H-pyran-4-yloxy)benzonitrile], the half-inhibitory concentration (IC50) in experiment [1] (setting [5]) is 250 to 1000 nM; in experiment [2] (setting [3]), below 5 nM; in experiment [2] (setting [4]), below 5 nM.

Consider `N#Cc1cc(-c2ccnc(Nc3ccncc3)n2)ccc1OC1CCOCC1` [Example Compound 34, 5-[2-(Pyridin-4-ylamino)pyrimidin-4-yl]-2-(tetrahydro-2H-pyran-4-yloxy)benzonitrile], for which the IC50 in experiment [1] (setting [5]) is 250 to 1000 nM; in experiment [2] (setting [3]) it was below 5 nM; in experiment [2] (setting [4]) it was below 5 nM.

Turning to `N#Cc1cc(-c2ccnc(Nc3ccnc(N4CCC[C@@H]4CO)c3)n2)ccc1OC1CCOCC1` [Example Compound 37, 5-[2-({2-[(2R)-2-(Hydroxymethyl)pyrrolidin-1-yl]pyridin-4-yl}amino)pyrimidin-4-yl]-2-(tetrahydro-2H-pyran-4-yloxy)benzonitrile], the IC50 is 100 to 250 nM in experiment [1] and below 5 nM in experiment [2] (setting [4]).

Turning to `N#Cc1cc(-c2ccnc(Nc3ccnc(N4CC(O)C4)c3)n2)ccc1OC1CCOCC1` [Example Compound 41, 5-(2-{[2-(3-Hydroxyazetidin-1-yl)pyridin-4-yl]amino}pyrimidin-4-yl)-2-(tetrahydro-2H-pyran-4-yloxy)benzonitrile], the 50% inhibitory concentration (IC50) is 100 to 250 nM in experiment [1], below 5 nM in experiment [2] (setting [3]) and below 5 nM in experiment [2] (setting [4]).

Regarding `N#Cc1cc(-c2ccnc(Nc3ccnc(N4CCN(CCO)CC4)c3)n2)ccc1OC1CCOCC1` [Example Compound 42, 5-[2-({2-[4-(2-Hydroxyethyl)piperazin-1-yl]pyridin-4-yl}amino)pyrimidin-4-yl]-2-(tetrahydro-2H-pyran-4-yloxy)benzonitrile], the IC50 in experiment [1] was below 100 nM; in experiment [2] (setting [3]), below 5 nM; in experiment [2] (setting [4]), below 5 nM.

As to `COC1CN(c2cc(Nc3nccc(-c4ccc(OC5CCOCC5)c(C#N)c4)n3)ccn2)C1` [Example Compound 43, 5-(2-{[2-(3-Methoxyazetidin-1-yl)pyridin-4-yl]amino}pyrimidin-4-yl)-2-(tetrahydro-2H-pyran-4-yloxy)benzonitrile], the IC50 in experiment [1] was below 100 nM; in experiment [2] (setting [3]), below 5 nM; in experiment [2] (setting [4]) it was below 5 nM.

In the case of `N#Cc1cc(-c2ccnc(Nc3ccnc(N4CCOCC4)c3)n2)ccc1OC1CCOCC1` [Example Compound 44, 5-(2-{[2-(Morpholin-4-yl)pyridin-4-yl]amino}pyrimidin-4-yl)-2-(tetrahydro-2H-pyran-4-yloxy)benzonitrile], the half-maximal inhibitory concentration (IC50) in experiment [1] was below 100 nM; in experiment [2] (setting [3]), below 5 nM; in experiment [2] (setting [4]), below 5 nM.

`COCCOC1CN(c2cc(Nc3nccc(-c4ccc(OC5CCOCC5)c(C#N)c4)n3)ccn2)C1` [Example Compound 45, 5-[2-({2-[3-(2-Methoxyethoxy)azetidin-1-yl]pyridin-4-yl}amino)pyrimidin-4-yl]-2-(tetrahydro-2H-pyran-4-yloxy)benzonitrile]: the IC50 is 100 to 250 nM in experiment [1], below 5 nM in experiment [2] (setting [3]) and below 5 nM in experiment [2] (setting [4]).

`CNCc1ccc(Nc2nccc(-c3ccc(OC4CCOCC4)c(C#N)c3)n2)cn1` [Example Compound 52, 5-[2-({6-[(Methylamino)methyl]pyridin-3-yl}amino)pyrimidin-4-yl]-2-(tetrahydro-2H-pyran-4-yloxy)benzonitrile]: the IC50 in experiment [1] (setting [5]) was 250 to 1000 nM; in experiment [2] (setting [3]), below 5 nM; in experiment [2] (setting [4]) it was below 5 nM.

In the case of `CC(=O)N(C)Cc1ccc(Nc2nccc(-c3ccc(OC4CCOCC4)c(C#N)c3)n2)cn1` [Example Compound 53, N-{[5-({4-[3-Cyano-4-(tetrahydro-2H-pyran-4-yloxy)phenyl]pyrimidin-2-yl}amino)pyridin-2-yl]methyl}-N-methylacetamide], the IC50 in experiment [1] was 100 to 250 nM; in experiment [2] (setting [4]), below 5 nM.

Consider `CN(CCS(C)(=O)=O)Cc1ccc(Nc2nccc(-c3ccc(OC4CCOCC4)c(C#N)c3)n2)cn1` [Example Compound 54, 5-(2-{[6-({Methyl[2-(methylsulfonyl)ethyl]amino}methyl)pyridin-3-yl]amino}pyrimidin-4-yl)-2-(tetrahydro-2H-pyran-4-yloxy)benzonitrile], for which the IC50 in experiment [1] is 100 to 250 nM; in experiment [2] (setting [4]), below 5 nM.
